“Also recorded” adds a separate entry of the source.
Assays:
AMPA receptor = experiment: Fast application with double barrel pipette: AMPA receptor desensitization in outside-out patches from CAl hippocampal pyramidal neurons; assay type: cell-based, rat; conditions: comparison compound, lower dose than IDRA 21, concentration not given
Experimental: (§1) Young rats (12-16 days old) were decapitated and the brains quickly removed and placed in ice-cold Ringer solution. Thin slices of hippocampus (250 μm) were then cut with a vibratome slicer (Lancer, St. Louis, Mo.) and kept in Ringer solution at 37° C. until use. The experiments were carried out at room temperature with the slice totally submerged in a 1 ml volume recording chamber and under continuous perfusion with Ringer solution at a rate of 6 ml/min using an upright Hoffman modulation contrast microscope (Carl Zeiss, Germany) equipped with a 40×water immersion objective.
(§2) Media and drug application. The external Ringer solution contained (in mM): NaCl 120; KCl 3.1; CaCl2 2; MgCl2 1; KH2 PO4 1; NaHCO3 26; glucose 2.7; and it was continuously bubbled with 95% O2 and 5% CO2. Patch pipettes were filled with a solution containing (in mM): K-gluconate 140; MgCl2 1; ATP.Mg 2; EGTA 0.5; HEPES-KOH 10, pH 7.2. All the drugs under investigation were applied through the recording chamber perfusion system via parallel inputs having a common entry into the chamber. Agonist application was attained using two different systems that allowed a slow or a rapid solution change. Slow solution changes were used during recordings in whole-cell configuration and were obtained by exchanging the solution of the recording chamber within a few seconds. Fast solution changes were obtained with the use of the Y-shaped tubing method that allows complete exchange of solution in less than 10 ms, and is described in detail by Murase et al. (1989).
Briefly, a polyethylene tubing (1 mm i.d.) is bent in a U-shaped, and another fine polyethylene tubing (50 μi.d.) and 10 mm length) is inserted into a small hole in the U-tubing making the tip of the Y-tubing. Solutions are fed to the Y-tubing by gravity, and negative pressure facilitates exchange of the solution. The tip of the Y-tubing is positioned 100 μm from the cell investigated, and upon opening and closing of a valve that controls the negative pressure, it was possible to respectively change rapidly and apply a number of different test solutions. This method was used to apply agonists to excised outside-out membrane patches. More rapid drug applications were used to apply agonists to excised outside-out membrane patches, and were obtained through a double-barrelled pipette positioned close to the recording pipette containing the membrane patch. […] The agonist was applied for a period of 150 ms and the time necessary for a complete exchange of the solution was less than 1 ms as measured at the opening of a patch pipette containing different dilutions of the drugs under study. […]
Ionic currents in whole-cell configuration and outside-out excised membrane patches were monitored using the patch clamp technique (15). […]

[1] = test system: kainate-activated current; experiment: Selectivity: ionic current elicited by 20 μM kainate; assay type: cell-based, rat
Experimental: as §1, §2
(§3) Ionic currents in whole-cell configuration and outside-out excised membrane patches were monitored using the patch clamp technique (15).

[2] = test system: EPSCs elicited in CAl pyramidal neurons; experiment: Excitatory postsynaptic currents (EPSCs) in CAl pyramidal neurons in hippocampal slices on stimulation of Schaffer collateral afferents; assay type: cell-based, rat; conditions: in vitro; compared with (+) IDRA 21
Experimental: as §1, §3
Traces were filtered at 3 KHz (-3 dB, 8-pole, lowpass Bessel filter, Frequency Devices), and stored in an LSI 11/73 computer (INDEC System, Sunnyvale, Calif.) after digitization (10 KHz) with a Data Translation analog to digital converter. Decay time constants of EPSC and glutamate-activated currents were determined from exponential fitting with the 11/73 system by using an entirely automated least-squares procedures (see Vicini and Schuetze, 1985, for further details). This method uses a Simplex algorithm (Caceci and Cacheris, 1984) to fit the data to either a single or double exponential equation of the form I(t)=If exp(-t/tauf)+Is exp(-t/taus), where If and Is are the amplitudes of the sIPSC fast and slow components, and tauf and taus are their respective decay time constants. Peak amplitudes were measured at the absolute maximum of the currents, taking into account the noise of the baseline and noise around the peak. Rise times were measured as the time elapsed from 20 to 80% of the peak amplitude of the response.
The action of nootropic drugs on the excitatory postsynaptic currents (EPSCs) elicited in CAl pyramidal neurons in hippocampal slices was investigated by stimulation of the Schaffer collateral afferents.

rats [3] = experiment: Water maze: drug action on alprazolam-disrupted learning behavior in rats; assay type: in vivo, rat
Experimental: Rats (male 250 g b.w.) were trained two days, once a day, in maze A (See insert A). […] Rats were exposed to a new maze configuration (Maze B) in 4 successive trials 15, 30, 45, and 60 min after the i.p. injections.
The water maze apparatus was adapted from Kant et al., (16), and consists of three concentric squares placed inside a 5 ft plastic pool (FIG. 6). The walls of the maze are 50 cm in height and are constructed from black opaque plastic to allow for tracking of the animal with an overhead camera. The alleys between the walls are 16 cm wide. In the center of each wall there is a removable doorway. The opening of doorways allows for the construction of mazes with an increasing number of potential error possibilities. (See diagram for Maze A and Maze B, FIG. 6). The maze is located in a room 10'×15' at constant temperature (18° C.) adjacent to the vivarium. The room is illuminated with overhead lights which also serve as spatial cues. Additional spatial cues are provided by the position of the investigator and a number of small white x's placed within specific locations upon the walls of the maze. The maze is filled with water (18°)C. to a depth of 25 cm.
Seven days prior to drug studies, rats were tested in Maze A (forced maze) on two consecutive days. Pretesting with the "forced" maze enabled the assessment of the animals' general motor, sensory and motivational abilities, and facilitated the exclusion of those animals unable to meet pretesting criteria. Performance was assessed by determining either swim time, errors committed, or path length measured with a computerized recording device. Errors are defined as whole body entry into alleys not leading directly to the exit platform (i.e., shaded portions in FIG. 6). Rats were excluded from the study if their swim path length and/or number of errors were two standard deviations above the mean […] of the entire group. During the first two trials, the rats were placed into the center of the maze and given a maximum of 180 secs to find the "exit platform" located at the "finish" (FIG. 6). The time required, the number of errors, and the path length were recorded for each trial. […] Rats meeting the criteria were randomly divided into groups. On the day of the experiment, a single trial was run (Maze A) in order to establish a baseline of performance. Following drug administration, the rats were again tested once on Maze A to establish a baseline of post-treatment performance. Following an additional interatrial interval of 30 min., the rats were tested on Maze B.
In these experiments, rats were trained in Maze B 15, 30, 45 and 60 min. after drug injection.

[4] = Entry into the brain (inferred from in vivo activity); conditions: inferred ("presumably") from in vivo activity or lack of it
GABAA receptors = experiment: Preliminary electrophysiological and biochemical radiolabeled binding studies on GABAA receptors
Pacata monkeys = experiment: Preliminary experiments in Pacata monkeys: working memory; assay type: in vivo
Source text: The present IDRAcompounds are useful for enhancing both short-term memory, long-term memory, and cognitive performance in man. […]. As a result, the compounds of the present invention are useful as therapeutic agents in memory impairment, e.g., due to toxicant exposure, brain injury, epilepsy, mental retardation in children and senile dementia, including Alzheimer's disease.

rats [5] = experiment: Water maze: drug action on alprazolam-disrupted learning behavior in rats; assay type: in vivo, rat; conditions: oral 5 mg/kg
Gross animal behavior = conditions: at effective doses

SMILES | removal of glutamate-induced desensitization (AMPA receptor) | effect on kainate-activated current ([1]; 40 μM compound, 20 μM kainate) | effect on kainate responses at doses that decreased AMPA desensitization ([1]; all doses that decrease/inhibit AMPA desensitization) | efficacy in increasing excitatory synaptic strength in CAl pyramidal neurons [2] | antagonism of alprazolam amnesic effect (rats [3]; doses equimolar to IDRA 21 / (+) IDRA 21) | brain uptake [4] | disruptive action of alprazolam (rats [3]; discussion statement) | dose dependence of learning and memory enhancing effect (rats [3]; rat, in vivo) | duration of learning and memory enhancing effect (rats [3]; rat, in vivo) [h] | biological activity of enantiomers (summary) (rats [3]; summary statement) | direct action on GABAA receptors (GABAA receptors) | working memory enhancement (Pacata monkeys) | potency vs racemate in preventing alprazolam-induced amnesia (rats [5]) | prevention of alprazolam-induced amnesia (enantiomers) (rats [5]) | effect on gross animal behavior (exploratory behavior, stereotypy, ataxia, posture) (Gross animal behavior)
NS(=O)(=O)c1cc2c(cc1Cl)NC(C1CC3C=CC1C3)NS2(=O)=O (stereo not shown) [cyclothiazide, reference compound] | completely removed the desensitization induced by glutamate | increased the current | potently potentiated kainate responses | at least as efficacious as (+) IDRA 21 | unable to antagonize alprazolam-induced impairment of learning behavior | fail to enter the brain | – | – | – | – | – | – | – | – | –
CC1Nc2ccc(Cl)cc2S(=O)(=O)N1 (single isomer, unassigned; (+)) [(+) IDRA 21] | – | – | – | – | – | taken up by the brain in a sufficient quantity to produce learning and memory enhancing effects | antagonizes the disruptive action of alprazolam | dose-dependent | > 1 | biologically active | fails to act directly on GABAA receptors | very potent in enhancing working memory | significantly more potent than (±) IDRA; also recorded: more potent that (±) IDRA 21 | active in preventing alprazolam-induced amnesia in rats | no changes in exploratory behavior, stereotypy, ataxia, posture, etc.

— patent US5488049A, “Method of treating learning and memory disorders using benzothiadiazide derivatives as nootropic agents” (FIDIA - Georgetown Institute for the Neuro-Sciences, priority 1993, dated 1996)
